Laboratory results taken from PMC12218520, “Oxyresveratrol suppressed melanogenesis, dendrite formation, and melanosome transport in melanocytes via regulation of the MC1R/cAMP/MITF pathway” (Scientific Reports, 2025).
Where two headings read alike, the source gives them in different places. One block for each molecule: values may come before it.

How the values were obtained:
[1] = target: T1, human tyrosinase (Homo sapiens, UniProt P14679); assay: L-DOPA oxidation assay with recombinant human tyrosinase, absorbance at […] nm; type: biochemical
T1 construct: gene TYR; recombinant human tyrosinase (OriGene TP321797L)
T1 sequence (P14679 19-529): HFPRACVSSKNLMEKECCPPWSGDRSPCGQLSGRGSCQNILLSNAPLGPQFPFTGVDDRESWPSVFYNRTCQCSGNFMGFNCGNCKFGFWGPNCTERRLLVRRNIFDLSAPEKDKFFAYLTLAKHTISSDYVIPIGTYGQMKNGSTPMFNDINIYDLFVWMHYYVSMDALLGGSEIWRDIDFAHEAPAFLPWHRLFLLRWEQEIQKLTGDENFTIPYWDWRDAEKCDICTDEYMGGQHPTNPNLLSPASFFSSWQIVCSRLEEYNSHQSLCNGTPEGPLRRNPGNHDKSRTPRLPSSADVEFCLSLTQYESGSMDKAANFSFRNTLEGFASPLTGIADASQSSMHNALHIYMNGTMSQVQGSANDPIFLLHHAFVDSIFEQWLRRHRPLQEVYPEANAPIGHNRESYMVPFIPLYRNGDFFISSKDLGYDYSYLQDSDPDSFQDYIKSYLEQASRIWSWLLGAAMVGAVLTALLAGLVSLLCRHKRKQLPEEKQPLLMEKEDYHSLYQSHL

[2] = target: T1, human tyrosinase; assay: substrate of the tyrosinase assay ([…]), absorbance at […] nm; type: biochemical

Structure (SMILES): Oc1ccc(/C=C/c2cc(O)cc(O)c2)cc1 [compound 2, Resveratrol]
- IC50 [1]: 57.2 µM

Structure (SMILES): N[C@@H](Cc1ccc(O)c(O)c1)C(=O)O [L-DOPA]
- substrate of the tyrosinase assay (0.5 mM), absorbance at 492 nm [2]: Inhibition of human tyrosinase activity by oxyresveratrol, resveratrol, phenylethyl resorcinol, and glabridin in vitro, using L-DOPA as substrate.

- IC50 ([1]; read-out: IC50 (μg/mL) (converted)): 88.5 µM
Structure (SMILES): CC(c1ccccc1)c1ccc(O)cc1O (stereo not drawn) [compound 3, Phenylethyl resorcinol]
